Experiments:
[1] = In vitro stability of the radio-labeled chelate in human plasma; type: in vitro ADME
Protocol: The stability of the serum and of the in vitro chelate were also studied by TLC and by HPLC.
For the stability of the serum, 200 μL of radiomarked Me-DODPA^2− solution (activity: 1 MBq, radiochemical purity: 95%) were mixed with 800 μL of human plasma. The plasma stability values were controlled in comparison with free ^213Bi, after 1 and 2 hours of incubation (about 1 and 2 half-lives) at ambient temperature by direct gel permeation chromatography on plasma in a PD-10 column and by TLC analysis of this supernatant after precipitation of the plasma proteins with ammonium sulfate. The TLC analysis was performed under the same conditions as earlier. After precipitation, the activity in the precipitate was measured (78.8%) as also the activity in the supernatant ([…]).

[2] = 1H NMR competition with DOTA for complexation of bismuth (III); type: physicochemical
Protocol: As regards the chelate of Me-DODPA and bismuth (III) or DODPA and bismuth (III), the thermodynamic stability constants were evaluated by NMR ^1H (in a concentration of 10^−2 M) in studying the competitivity of the complexation of bismuth (III) with Me-DODPA or DODPA and DOTA. Indeed, such a constant cannot be measured directly by potentiometery for the bismuth chelates
A mole equivalent of […] was added to an equimolar solution of DODPA and DOTA at pH=1. The pH was then adjusted to 3 and an NMR spectrum was recorded. After five days at 25° C., it was observed that about 40% of the DODPA had been complexated with bismuth (III). […] Chem., 2003, 42, 2342-2349, is about 30.3.

[3] = Kinetics of complexation with bismuth (III) by UV/Vis spectroscopy; type: physicochemical; conditions: 1.65×10^-4 M each, stirring at ambient temperature
Protocol: (§1) The kinetics of complexation of Me-DODPA chelates with bismuth (III) and lead (II) were studied by UV/Vis spectroscopy.
An aqueous solution of Bi(NO3)3.5H2O (1.65×10^−4 M) was added to an aqueous solution of Me-DODPA (1.65×10^−4M). The UV/Vis spectra were recorded at different reaction times.

[4] = Kinetics of complexation with lead (II) by UV/Vis spectroscopy; type: physicochemical; conditions: equimolar 0.74×10^-4 M, pH=7
From the text: as §1
Referring to FIG. 4, a total complexation of Me-DODPA with lead (II) was observed ten minutes after the equimolar mixing (0.74×10^−4 M) of an aqueous solution of PbCl2 and an aqueous solution of Me-DODPA at pH=7.

[5] = Thermodynamic stability constant pK of lead (II) chelates by potentiometry; type: physicochemical; conditions: 25° C., 0.10 M in KNO3
Protocol: (§2) For the DODPA or Me-DODPA chelates with lead (II), the thermodynamic stability constant pK was determined directly by potentiometery at 25° C., for a concentration of 0.10 M in KNO3. […] The pM values corresponding to the non-chelated lead concentrations were therefore computed for the DODPA or Me-DODPA chelates with lead (II) and compared with the value known for the DOTA chelate with lead (II). This value pM is defined by the negative logarithm of the free metal concentration at a pH of 7.4 and with a concentration of Pb(II) of 10 μM and a ligand concentration that is ten times greater. A pM value of 12.3 was measured for the chelate of DODPA and lead (II) and 14.9 for the chelate of Me-DODPA and lead (II) while the known pM value for the complex of DOTA and lead (II) is 18.4

[6] = pM value (free lead concentration) of lead (II) chelates; type: physicochemical; conditions: pH 7.4, Pb(II) 10 μM, ligand concentration ten times greater
Protocol: as §2

[7] = Kinetics of dissociation of complexes in DCl 0.1 M by NMR; type: physicochemical
Protocol: The kinetics of dissociation of these complexes were also studied by NMR. In this context, the [Bi(Me-DODPA)](NO3) and [Pb(Me-DODPA)] complexes were dissolved in DCl 0.1 M.

[8] = human plasma, ammonium sulfate precipitation

CN1CCN(Cc2cccc(C(=O)[O-])n2)CCN(C)CCN(Cc2cccc(C(=O)[O-])n2)CC1.CN1CCN(Cc2cccc(C(=O)[O-])n2)CCN(C)CCN(Cc2cccc(C(=O)[O-])n2)CC1.CN1CCN(Cc2cccc(C(=O)[O-])n2)CCN(C)CCN(Cc2cccc(C(=O)[O-])n2)CC1.[213Bi+3].[213Bi+3] [(^213Bi(Me-DODPA))^+]
stability in human plasma ([1]; 1 and 2 hours of incubation at ambient temperature): stable in human plasma for at least two half-lives | radioactivity of the supernatant detected at Fr=0.5 (intact chelate), TLC ([1]; human plasma supernatant after protein precipitation): more than 90% | activity in the precipitate after precipitation of plasma proteins [1, 8]: 78.8% | activity in the supernatant after precipitation of plasma proteins [1, 8]: 3.8%

O=C(O)c1cccc(CN2CCNCCN(Cc3cccc(C(=O)O)n3)CCNCC2)n1 [DODPA]
ligand complexated with bismuth (III) in competition with DOTA ([2]; equimolar ligand and DOTA, one mole equivalent Bi, pH 3, five days at 25° C., 10^-2 M): about 40%

CN1CCN(Cc2cccc(C(=O)O)n2)CCN(C)CCN(Cc2cccc(C(=O)O)n2)CC1 [Me-DODPA]
bismuth (III) complexated in equimolar mixture of ligand and DOTA ([2]; equimolar mixture of Me-DODPA and DOTA): the totality of the bismuth (III) was complexated by the Me-DODPA | time to total complexation with bismuth (III) [3]: 30 min | time to total complexation with lead (II) [4]: ten

O=C([O-])c1cccc(CN2CCNCCN(Cc3cccc(C(=O)[O-])n3)CCNCC2)n1.[Pb+2] [Pb(DODPA)]
thermodynamic stability constant pK [5]: 17.09 | pM value (negative logarithm of the free metal concentration) [6]: 12.3

CN1CCN(Cc2cccc(C(=O)[O-])n2)CCN(C)CCN(Cc2cccc(C(=O)[O-])n2)CC1.[Pb+2] [[Pb(Me-DODPA)]]
thermodynamic stability constant pK [5]: 18.74 | pM value (negative logarithm of the free metal concentration) [6]: 14.9 | dissociation of the complex [7]: total dissociation of the complex [Pb(Me-DODPA)] was observed at the end of seven days
